Experimental data from patent publication US20260159474A1, “Aminoindane Compounds and Compositions and Methods of Their Therapeutic Use” (Solvonis Therapeutics Ireland Holdings Limited, priority 2021, published 2026).

System: extracellular dopamine (DA) in the nucleus accumbens (NAcc)
Assay: In vivo microdialysis in rat nucleus accumbens, dopamine
Design: species or system Sprague Dawley rats
Settings: 7 mg/kg I.P.
Experimental: Methods and Procedure: This study was conducted in compliance with previously described procedures to assure data integrity, adherence to GLP regulations, and standard preclinical study and surgery procedures. The in vivo microdialysis technique was applied to measure the over-time variations of DA, 5-HT, and NE extracellular (EC) concentrations in conscious, freely-moving Sprague Dawley rats. Levels of the neurotransmitters in microdialysis samples were determined using LC-MS/MS analysis. The experiment was also conducted with MDMA for comparative purposes.
As it relates to cannula implantation, the rats were anesthetized with isoflurane 4% in oxygen (2-2.5 L/min), then the isoflurane concentration 2-2.5% was maintained via a nose cone adapted to the stereotaxic apparatus. The rats were treated with meloxicam (0.2 mg/kg, subcutaneously, sc; Meloxidolor) and amoxicilline (150 mg/kg, sc, Betamox LA). The skull was then shaved and disinfected. Rats were then placed in a stereotaxic apparatus for small animals. One vertical guide cannula was inserted through a 1 mm hole drilled on the exposed skull. Coordinates, with respect to the bregma to target specific brain areas, followed indications from stereotaxic atlas of the rat brain. Specifically a guide cannula (MAB 4.12.IC, Agn Tho's AB, Lidinga, Sweden) was inserted in the NAcc (anteroposterior+1.6; lateral −1.6; dorsoventral −6.0). The guide cannula was then secured with dental cement and 2-4 screws. At the end of the surgery the animal was isolated in a single cage during recovery, for a period of at least one week, during which animal health conditions were checked twice daily and the weight recorded twice a week. Animals continued to be housed singly throughout the experiment. One day before the experiment the cannula stylet was removed and a microdialysis probe with a dialyzing length of 2 mm (MAB 4.12.2 Cu, Agn Tho's AB, Lidingo, Sweden) was inserted. Probes can be re-used 2 times for 2 experimental sessions after appropriate cleaning with fresh milliQ water.
Post-surgery, the rats were maintained in a heating chamber prior to waking up in order to avoid hypothermia that could be caused by anaesthesia. 5 mL of physiologic solution was subcutaneously administered immediately after surgery, and once/day for 2-3 days, if signs of dehydration are noticed. Meloxicam (Meloxidolor) 0.2 mg/kg was again administered subcutaneously the day after surgery as well as after 48 h after surgery together with Amoxicilline Long Acting (Betamox LA) 150 mg/kg. Health status and body weight was checked every day during the first week.
The animals were treated with the therapeutic compounds, and MDMA, or their vehicle (saline) according to a Latin square design over 5 separate experimental days (one day/week). The treatments were administered in a volume of 1 mL/kg intraperitoneally.
On the day of the experiment, each animal was taken into the laboratory in its home cage. Inlet tubing of the probe was attached to a dual quartz-lined two channel liquid swivel mounted on a low mass spring counterbalance arm which, in turn, was connected to a gas-tight syringe on a microinfusion pump. […] An equilibration period of about two hours of perfusion was allowed before collecting samples. Following the equilibration period, 4 basal samples were collected for each experimental animal followed by further 10 post-treatment samples. Samples were collected every 20 minutes (up to 3 hours and 20 minutes post-treatment) by means of a refrigerated auto-sampler (Univentor 820 Microsampler, AgnTho's, Sweden) maintained at +8 “C. At the end of all experimental sessions, 2 μL of 0.1% methylene blue solution was injected through the microdialysis probe, animals were euthanized, and their brains removed to confirm the correct probe-position.
As mentioned, the concentration of DA, 5-HT and NE in CSF samples were determined using an optimized method based on LC-MS/MS analysis. […]

With `CNC(C)Cc1ccc2c(c1)OCO2` (stereo not drawn) [MDMA] the “Dopamine (DA) level (% from baseline)” value (0 min (basal sample)) was 93%, the “Dopamine (DA) level (% from baseline)” value (20 min post-admin) was 113% and the “Dopamine (DA) level (% from baseline)” value (40 min post-admin) was 381%. The “Dopamine (DA) level (% from baseline)” value (60 min post-admin) was 520%, the “Dopamine (DA) level (% from baseline)” value (80 min post-admin) was 448% and the “Dopamine (DA) level (% from baseline)” value (100 min post-admin) was 399%. The “Dopamine (DA) level (% from baseline)” value (120 min post-admin) was 396%, the “Dopamine (DA) level (% from baseline)” value (140 min post-admin) was 357% and the “Dopamine (DA) level (% from baseline)” value (160 min post-admin) was 324%. For the same compound, the “Dopamine (DA) level (% from baseline)” value (180 min post-admin) was 293%, the “Dopamine (DA) level (% from baseline)” value (200 min post-admin) was 278% and the “Dopamine (DA) level (% from baseline)” value (−20 min (basal sample)) was 107%.

With `COC(=O)c1ccc2c(c1)CC(N)C2` (stereo not drawn) [CMP-405, 2-aminoindane-5-methylcarboxylate] the “Dopamine (DA) level (% from baseline)” value (0 min (basal sample)) was 99%, the “Dopamine (DA) level (% from baseline)” value (20 min post-admin) was 134% and the “Dopamine (DA) level (% from baseline)” value (40 min post-admin) was 122%. The “Dopamine (DA) level (% from baseline)” value (60 min post-admin) was 139%, the “Dopamine (DA) level (% from baseline)” value (80 min post-admin) was 117% and the “Dopamine (DA) level (% from baseline)” value (100 min post-admin) was 123%. For the same compound, the “Dopamine (DA) level (% from baseline)” value (120 min post-admin) was 113%, the “Dopamine (DA) level (% from baseline)” value (140 min post-admin) was 99% and the “Dopamine (DA) level (% from baseline)” value (160 min post-admin) was 98%. For the same compound, the “Dopamine (DA) level (% from baseline)” value (180 min post-admin) was 96%, the “Dopamine (DA) level (% from baseline)” value (200 min post-admin) was 107% and the “Dopamine (DA) level (% from baseline)” value (−20 min (basal sample)) was 101%.

`COc1ccc2c(c1)CC(N)C2` (stereo not drawn) [MEAI, 5-methoxy-2-aminoindane] was tested, and the “Dopamine (DA) level (% from baseline)” value (0 min (basal sample)) was 96%, the “Dopamine (DA) level (% from baseline)” value (20 min post-admin) was 95% and the “Dopamine (DA) level (% from baseline)” value (40 min post-admin) was 197%. For the same compound, the “Dopamine (DA) level (% from baseline)” value (60 min post-admin) was 187%, the “Dopamine (DA) level (% from baseline)” value (80 min post-admin) was 154% and the “Dopamine (DA) level (% from baseline)” value (100 min post-admin) was 141%. For the same compound, the “Dopamine (DA) level (% from baseline)” value (120 min post-admin) was 130%, the “Dopamine (DA) level (% from baseline)” value (140 min post-admin) was 131% and the “Dopamine (DA) level (% from baseline)” value (160 min post-admin) was 137%. The “Dopamine (DA) level (% from baseline)” value (180 min post-admin) was 144%, the “Dopamine (DA) level (% from baseline)” value (200 min post-admin) was 127% and the “Dopamine (DA) level (% from baseline)” value (−20 min (basal sample)) was 104%.
